Columns and labels:
OPM-2 cells = experiment: Proliferation/viability assay (CellTiter-Glo), OPM-2; type: cell-based, human; settings: OPM-2, 48 h treatment
Experimental: Human MM cell lines used were as follows: NCI-H929, OPM-2, LP-1, RPMI-8226, U266 (DSMZ, Braunschweig, Germany). Cell lines were cultured in RPMI 1640 medium (Biochrom, Berlin, Germany) supplemented with 10% heat-inactivated fetal calf serum (FCS, Gibco, Karlsruhe, Germany), 1 mM sodium pyruvate and 100 units/ml penicillin and 100 μg/ml streptomycin (Gibco). Human osteoclasts were obtained as described in the reference of Zavrski I, Krebbel H, Wildemann B, et al. Proteasome inhibitors abrogate osteoclast differentiation and osteoclast function. Biochem Biophys Res Commun. 2005; 333:200-205. Briefly, peripheral blood mononuclear cells (PBMC) were isolated from whole blood of healthy volunteers, using a Ficoll-Hypaque density gradient. The adherent fraction of the isolated mononuclear cells was cultured for 21 days in MEM medium (Sigma-Aldrich Chemie, Taufkirchen, Germany) supplemented with 10% FCS, 100 U/ml penicillin, 100 μg/ml streptomycin, 50 ng/ml M-CSF, and 25 ng/ml RANKL (osteoclastogenic medium), before coculture experiments and treatment with the inventive compounds started. […]
For assaying proliferation/viability of cells CellTiter-Glo Luminescent Cell Viability Assay (Promega, Mannheim, Germany) was used. In this assay the number of viable cells at a given time point is determined by quantification of ATP present, which serves as a measure of metabolically active cells. […]

Hes-1 = experiment: Quantitative RT-PCR of Notch1 target gene Hes-1 in OPM-2 cells; type: cell-based, human; settings: OPM-2 cells treated with GSI15
Experimental: Quantitative real-time reverse transcription-PCR (RT-PCR) analysis was performed using the following primer/probe sets: human Hes-1 (forward—[…], reverse—[…], probe—FAM-[…]-TAMRA) human TRAP5 (forward—[…], reverse—[…], probe FAM-[…]-TAMRA), human beta2-microglobulin (forward—ccc cca ctg aaa aag atg ag, reverse—atc caa tcc aaa tgc ggc, probe—FAM-CCTGCCGTGTGAACCATGTGACTTT-TAMRA) served as normalizer. Total RNA was extracted from MM cells, human osteoclasts or human osteoblasts using RNeasy Mini Kit (Qiagen, Hilden, Germany) following the manufacturer's instructions. For the RT-PCR reaction SuperScript™ III Platinum® One-Step Quantitative RT-PCR System (Invitrogen, Karlsruhe, Germany) was used. 50 ng total RNA were used per reaction, each RNA sample was analyzed in three replicates. PCR conditions (40 cycles) were the following: reverse transcription at 50° C. for 30 minutes, initial denaturation at 95° C. for 10 minutes, followed by 40 cycles of 45 seconds denaturation at 95° C. and 60 seconds annealing/extension at 62° C. Amplification of the house-keeping gene beta2-microglobulin was used to normalize the expression data. Normalized mRNA expression data were then calculated as values relative to the respective untreated sample.

LP-1 cells = experiment: Cell cycle analysis (propidium iodide), sub-G1 fraction, LP-1; type: cell-based, human; settings: LP-1, after 72 h
Experimental: (§1) The compound according to example 1, hereinafter referred to as GSI15, (compound RH02015SC, Maybridge, Acros Organics, Geel, Belgium) was freshly dissolved as 26 mM stock solution in Dimethylsulfoxide (DMSO). Multiple myeloma therapeutics used were melphalan (marketed as Alkeran®, GlaxoSmithKline, Munich, Germany) and bortezomib (marketed as Velcade®, Janssen-Cilag, Neuss, Germany). Melphalan was freshly dissolved at 10 mg/ml in 0.9% NaCl-solution. Bortezomib was freshly dissolved at 100 ng/ml in 0.9% NaCl solution. Gamma Secretase Inhibitor (GSI) treatment for apoptosis assessment by AnnexinV/PI staining, cell cycle analysis and coculture experiments was performed in 6-well plates. GSI15 stock solution was added directly to the cell suspension. GSI treatment for assaying proliferation was performed in 96-well plates. […]
(§2) For cell cycle analysis 2×10^5 cells were spun down, medium was aspirated and cells washed with PBS. […] After 10 minutes incubation in the dark at room temperature, cells were analyzed by flow cytometry. The amount of apoptotic cells was determined by AnnexinV/propidium iodide staining using Human AnnexinV-FITC Kit (Bender Medsystems, Vienna, Austria), according to manufacturer's protocol. […] Cells were then spun down again, resuspended in binding buffer containing PI and analyzed by flow cytometry.

U266 cells = experiment: Apoptosis by AnnexinV-FITC/PI staining, U266; type: cell-based, human
Experimental: as §1, §2

[1] = Physiological compatibility, parenteral administration in mice; settings: in vivo, other: parenteral, mouse
Experimental: The compound according to example 1 was tested for its physiological compatibility via parenteral administration in mice. The LD50 (parenteral, mouse) is 800 mg/kg. Accordingly compound 1 can be considered to be physiologically compatible.

human podocyte cell line = experiment: TGFβ-induced apoptosis in human podocyte cell line (Cell Death Detection ELISA); type: cell-based
Experimental: The percentage of the apoptotic cells was determined after 24 hours using the Cell Death Detection ELISA (Roche Diagnostics, Mannheim, Germany) according to the manufaturer's protocol.

**Q.** Which “concentration of maximum effect on proliferation” value (OPM-2 cells) does the source give for `CC(C)c1ccc(S(=O)(=O)Nc2cccnc2Oc2ccc(Cl)cc2)cc1` [Example 1, N-(2-(4-chlorophenoxy)pyridin-3-yl)-4-isopropylbenzenesulfonamide] here?
**A.** Its value is 60 µM.

**Q.** And the proliferation (OPM-2 cells)?
**A.** Its proliferation is “dose-dependent reduction of proliferation”.

**Q.** What about the “Hes-1 expression (Notch1 target gene)” value (Hes-1) of the same compound?
**A.** Its value is “dose-dependently downregulated”.

**Q.** What about the sub-G1 fraction (LP-1 cells) of the same compound?
**A.** The sub-G1 fraction was “increase in the sub-G1 fraction”.

**Q.** And the AnnexinV-FITC/PI staining (U266 cells)?
**A.** The AnnexinV-FITC/PI staining was “remained unaffected”.

**Q.** And the LD50 [1]?
**A.** Its LD50 is 800 mg/kg.

**Q.** And the “effect in podocyte cell culture experiments” value (human podocyte cell line)?
**A.** Its value is “positive effect”.

**Q.** And the inhibition at 0.5 µM (human podocyte cell line; Homo sapiens, 500 nM, compared to TGFβ alone, 24 hours)?
**A.** The inhibition at 0.5 µM was 41%.
